The record followed here is article PMC8658787, “Screening of Potential Thrombin and Factor Xa Inhibitors from the Danshen–Chuanxiong Herbal Pair through a Spectrum–Effect Relationship Analysis” (Molecules, 2021).

The structures appear in SMILES notation.

factor Xa (FXa), sequence (P00742 235-488 limits assumed): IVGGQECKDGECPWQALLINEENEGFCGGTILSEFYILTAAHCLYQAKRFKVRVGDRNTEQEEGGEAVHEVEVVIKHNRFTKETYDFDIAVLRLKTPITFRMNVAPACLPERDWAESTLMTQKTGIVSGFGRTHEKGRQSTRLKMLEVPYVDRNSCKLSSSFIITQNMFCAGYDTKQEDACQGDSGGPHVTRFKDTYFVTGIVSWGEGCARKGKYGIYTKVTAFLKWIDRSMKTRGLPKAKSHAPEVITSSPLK
factor Xa (FXa), sequence (P00742 41-179 partner limits assumed): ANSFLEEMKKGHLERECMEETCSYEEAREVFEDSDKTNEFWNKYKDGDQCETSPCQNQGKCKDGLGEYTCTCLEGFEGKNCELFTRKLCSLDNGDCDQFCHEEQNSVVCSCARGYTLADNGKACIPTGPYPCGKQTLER

One test has as its target factor Xa (FXa) (Homo sapiens, UniProt P00742). As to the kind of experiment: FXa inhibitory activity assay (chromogenic substrate S-2765, absorbance at 405 nm). It counts as biochemical. The note with it: in vitro enzymatic activity assay.
Description: (§1) A stock solution of THR (125 U/mL) was prepared by dissolving 4.16 mg of THR in 1.0 mL of PBS. A stock solution of FXa (0.5 IU/mL) was prepared by dissolving 5.0 mg of FXa in 1.0 mL of PBS. Stock solutions of S-2238 (2 mg/mL) and S-2765 (2.5 mg/mL) were prepared in PBS. The DC extract samples (10 mg/mL) were prepared in a PBS buffer and diluted to 5.0 and 2.5 mg/mL as necessary.
(§2) THR and FXa inhibitory activity assays were performed with an iMark™ Microplate Absorbance Reader (Bio-Rad Laboratories, Inc., Hercules, CA, USA). A DC extract solution of 50 μL and a 50 μL THR solution were mixed and incubated for 10 min at 37 °C. Subsequently, a 100 μL S-2238 (2 mg/mL) solution as the chromogenic substrate was added to start the reaction in the microplate reader. The absorbance was monitored at 405 nm every 30 s for 10 min, and each group was measured three times. […] Except for the enzyme solution and chromogenic substrate, the procedure for assessing the FXa inhibitory activity was exactly the same as for THR. The inhibition rate (%) of THR and FXa was calculated using Formula (1). (1) I(%)=[(dA/dt)blank−(dA/dt)sample]/(dA/dt)blank where I(%) represents the % of inhibition, and (dA/dt)blank and (dA/dt)sample represent the reaction rate of the control and experimental group, respectively. The results were expressed as the mean ± standard deviation (SD) of three experiments.
As to `O=C(O)/C=C/c1ccc(O)c(O)c1` [Caffeic acid], half-maximal inhibition (IC50) was put at 3790 µM. In other words, the millimolar range. In the case of `Cc1coc2c1C(=O)C(=O)c1c-2ccc2c1CCCC2(C)C` [Tanshinone IIA], inhibition was half-maximal at 138 µM (IC50). On the same count and under the same terms, in the case of `Cc1coc2c1C(=O)C(=O)c1c-2ccc2c(C)cccc12` [Tanshinone I] it was 113 µM; in that of `COc1cc(/C=C/C(=O)O)ccc1O` [Ferulic acid], 2490 µM.

Another test has as its target T1, thrombin (THR) (Homo sapiens, UniProt P00734).
T1 construct: purchased Sigma-Aldrich
The test can be described thus: THR inhibitory activity assay (chromogenic substrate S-2238, absorbance at 405 nm). It counts as biochemical. As to conditions: in vitro enzymatic activity assay.
Description: as §1, §2
Consider `CCC/C=C1\OC(=O)C2=C1CCC=C2` [Z-ligustilide], for which the IC50 (usually the concentration at which inhibition is half-maximal) was 1460 µM. `O=C(/C=C/c1ccc(O)c(O)c1)O[C@@H]1C[C@](O)(C(=O)O)C[C@@H](O)[C@H]1O` [Chlorogenic acid]: the IC50 is 185 µM.
